Source: ChEMBL document CHEMBL1201862, “PubChem BioAssay data set” (2004)
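Following 48 hours of exposure in 96-well plates, responses at five concentrations were used to interpolate endpoints linearly. At the GI50, growth is halved.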 Calls of active or inactive are those of the source. Rule as the data show it: active = GI50 up to about 1.1 µM and inactive = higher.

Assays:
Assay in all cases: growth of human tumour cells (NCI), 48 h
LXFL 529 = tested on: LXFL 529
DMS-273 = tested on: DMS-273
HOP-18 = tested on: HOP-18
RXF 631 = tested on: RXF 631
KM-20L2 = tested on: KM-20L2
SNB-78 = tested on: SNB-78
BT-549 = tested on: BT-549
M19-MEL = tested on: M19-MEL
XF498 = tested on: XF498

With `Nc1c(-c2ccc(Br)cc2)[n+]([O-])c2ccccc2[n+]1[O-]` as the molecule, how does the GI50 (LXFL 529) read?
The GI50 was > 100 µM (inactive).

And the GI50 (DMS-273)?
Its GI50 is > 100 µM (inactive).

What about the GI50 (HOP-18) of the same molecule?
Its GI50 is > 100 µM (inactive).

And the GI50 (RXF 631)?
Its GI50 is > 100 µM (inactive).

And the GI50 (KM-20L2)?
Its GI50 is > 100 µM (inactive).

And the GI50 (SNB-78)?
Its GI50 is > 100 µM (inactive).

How did the GI50 (BT-549) turn out when `CCCCCCCCCCCCNC(C)=O` was run?
The GI50 was 13.7 µM (inactive).

For `Cc1ccc(S[C@@H](C)[C@@](O)(C(N)=O)c2ccccc2)cc1`, which GI50 (BT-549) is on record?
Its GI50 is 30.1 µM (inactive).

With `OCC1C(/C=C/c2ccoc2)ON2CCCC12` (stereo unspecified) as the molecule, how does the GI50 (LXFL 529) read?
The GI50 was > 100 µM (inactive).

And the GI50 (DMS-273)?
The GI50 was > 100 µM (inactive).

And the GI50 (HOP-18)?
Its GI50 is 0.279 µM (active).

What about the GI50 (KM-20L2) of the same molecule?
Its GI50 is > 100 µM (inactive).

What about the GI50 (M19-MEL) of the same molecule?
Its GI50 is > 100 µM (inactive).

And the GI50 (XF498)?
Its GI50 is > 100 µM (inactive).

And the GI50 (SNB-78)?
Its GI50 is > 100 µM (inactive).

Which results are given for `Cc1cccc(C)c1NC(=O)C1C(=O)N(c2c(C)cccc2C)C(=O)/C1=N\NC(N)=S` (stereo unspecified)?
GI50 (LXFL 529): > 100 µM (inactive); GI50 (HOP-18): 17.3 µM (inactive); GI50 (KM-20L2): 82.8 µM (inactive); GI50 (M19-MEL): > 100 µM (inactive); GI50 (SNB-78): > 100 µM (inactive)

For `C1=N/CCNCCNCC/N=C/c2ccccc2OCc2cccc(n2)COc2ccccc2/1`, which GI50 (BT-549) is on record?
Its GI50 is 38.5 µM (inactive).

How did the GI50 (BT-549) turn out when `CSc1nc(SC)c2c(CO)c(Br)n(Cc3ccccc3)c2n1` was run?
The GI50 was 21.6 µM (inactive).

How did the GI50 (BT-549) turn out when `c1ccc2c(c1)ncn2C1CCCCO1` (stereo unspecified) was run?
Its GI50 is > 100 µM (inactive).

Which GI50 (BT-549) does the source give for `CC(C)(CO)CNc1nc(N)nc(Cl)c1C=O` here?
The GI50 was 41.1 µM (inactive).

How did the GI50 (BT-549) turn out when `[O-]c1c[n+](CCCC[n+]2cc([O-])on2)no1` was run?
Its GI50 is > 100 µM (inactive).

How did the GI50 (BT-549) turn out when `COC(=O)/C=C\C(C#N)(C#N)/N=C/c1ccc(C)s1` was run?
The GI50 was 2.83 µM (inactive).

How did the GI50 (BT-549) turn out when `Cc1cc2c(c(O)c1-c1c(C)cc(O)c3c1C(=O)C=CC3=O)C(=O)C=CC2=O` was run?
The GI50 was 2.61 µM (inactive).

`CSC1=C(C#N)C(=O)N(c2ccc(C)cc2)C(=O)C1C#N` (stereo unspecified) was tested. Which GI50 (BT-549) did it give?
Its GI50 is > 100 µM (inactive).

With `COc1ccc(Cn2c(=O)c(OC)c(C)c3cc4ccccc4cc32)cc1` as the molecule, how does the GI50 (BT-549) read?
Its GI50 is 34.3 µM (inactive).

Which results are given for `CC(C)(Oc1ccc(/C=C/C(=O)c2ccccc2)cc1)C(=O)Nc1c(Cl)cccc1Cl`?
GI50 (LXFL 529): 6.56 µM (inactive); GI50 (DMS-273): 8.07 µM (inactive); GI50 (HOP-18): > 10 µM (inactive); GI50 (KM-20L2): > 10 µM (inactive); GI50 (M19-MEL): > 10 µM (inactive); GI50 (XF498): > 10 µM (inactive); GI50 (SNB-78): > 10 µM (inactive)

How did the GI50 (LXFL 529) turn out when `Cc1nc(Nc2ccc(Cl)cc2)sc1C(=O)NNC(=O)C(=O)NN` was run?
Its GI50 is 18.3 µM (inactive).

And the GI50 (DMS-273)?
The GI50 was 19.1 µM (inactive).

What about the GI50 (HOP-18) of the same molecule?
The GI50 was 16.2 µM (inactive).

What about the GI50 (KM-20L2) of the same molecule?
The GI50 was 16.3 µM (inactive).

And the GI50 (M19-MEL)?
Its GI50 is 19.2 µM (inactive).

And the GI50 (SNB-78)?
Its GI50 is 26.9 µM (inactive).

How did the GI50 (BT-549) turn out when `O=C(O)c1ccc(OCc2nc3cc(C(F)(F)F)ccc3nc2-c2ccccc2)cc1` was run?
Its GI50 is 75.3 µM (inactive).

With `C=CCSC1=N/C(=C\c2ccc(C)cc2)C(=O)N1CC=C` as the molecule, how does the GI50 (BT-549) read?
The GI50 was 23.6 µM (inactive).

`Cc1nc2ccc(S(=O)(=O)Nc3ccccn3)cc2c(=O)n1NS(=O)(=O)c1ccccn1` was tested. Which GI50 (BT-549) did it give?
The GI50 was > 100 µM (inactive).

How did the GI50 (BT-549) turn out when `Nc1ccc2nc3ccc(=O)cc-3n(-c3ccccc3)c2c1` was run?
Its GI50 is 73.8 µM (inactive).

Which results are given for `Cc1c(C(=O)/C=C/c2ccc(N(C)C)cc2)c(=O)n(-c2ccccc2)n1C`?
GI50 (LXFL 529): > 100 µM (inactive); GI50 (DMS-273): > 100 µM (inactive); GI50 (KM-20L2): > 100 µM (inactive); GI50 (M19-MEL): > 100 µM (inactive); GI50 (XF498): > 100 µM (inactive); GI50 (SNB-78): > 100 µM (inactive)

For `O=[N+]([O-])c1ccc(-n2nnc(C3=NCCN3)c2-c2ccc(Cl)cc2)cc1`, which GI50 (LXFL 529) is on record?
Its GI50 is > 100 µM (inactive).

What about the GI50 (DMS-273) of the same molecule?
The GI50 was > 100 µM (inactive).

What about the GI50 (HOP-18) of the same molecule?
The GI50 was > 100 µM (inactive).

And the GI50 (KM-20L2)?
The GI50 was > 100 µM (inactive).

What about the GI50 (M19-MEL) of the same molecule?
The GI50 was > 100 µM (inactive).

What about the GI50 (XF498) of the same molecule?
The GI50 was > 100 µM (inactive).

And the GI50 (SNB-78)?
The GI50 was > 100 µM (inactive).

How did the GI50 (BT-549) turn out when `COC(=O)c1ccccc1CC1Cc2ccc3c(c2C1)CCC3` (stereo unspecified) was run?
The GI50 was 60.8 µM (inactive).

`Cc1ccc(S(=O)(=O)Nn2c(C)cc3ccc(S(=O)(=O)Nc4ccccc4[N+](=O)[O-])cc3c2=O)cc1` was tested. Which GI50 (BT-549) did it give?
Its GI50 is > 100 µM (inactive).

How did the GI50 (LXFL 529) turn out when `c1ccc(-c2nnc(-c3nn(-c4ccccc4)c4nc5ccccc5nc34)o2)cc1` was run?
Its GI50 is 12.3 µM (inactive).

What about the GI50 (DMS-273) of the same molecule?
Its GI50 is 92 µM (inactive).

What about the GI50 (HOP-18) of the same molecule?
The GI50 was 20 µM (inactive).

What about the GI50 (KM-20L2) of the same molecule?
Its GI50 is > 100 µM (inactive).

And the GI50 (M19-MEL)?
Its GI50 is 47.8 µM (inactive).

What about the GI50 (XF498) of the same molecule?
The GI50 was 22.1 µM (inactive).

What about the GI50 (SNB-78) of the same molecule?
The GI50 was > 100 µM (inactive).

`COC1(OC)C2(Cl)C3=CCCC=C3C1(Cl)C(Cl)=C2Cl` was tested. Which GI50 (LXFL 529) did it give?
The GI50 was 25.6 µM (inactive).

And the GI50 (DMS-273)?
The GI50 was 13.3 µM (inactive).

And the GI50 (RXF 631)?
Its GI50 is 13.2 µM (inactive).

And the GI50 (KM-20L2)?
The GI50 was 23.2 µM (inactive).

And the GI50 (M19-MEL)?
The GI50 was 18.8 µM (inactive).

What about the GI50 (XF498) of the same molecule?
The GI50 was 19.2 µM (inactive).

What about the GI50 (SNB-78) of the same molecule?
The GI50 was 31.8 µM (inactive).

How did the GI50 (BT-549) turn out when `CCCC(CC)c1cc(O)c(O)cc1C(CC)CCC` (stereo unspecified) was run?
Its GI50 is > 10 µM (inactive).

`CCNC(=O)Nc1ccccn1` was tested. Which GI50 (BT-549) did it give?
Its GI50 is > 100 µM (inactive).

`COC(=O)C12OC3CO[Si](C(C)C)(C(C)C)O[Si](C(C)C)(C(C)C)OC3C1Oc1nc(=O)ccn12` (stereo unspecified) was tested. Which GI50 (BT-549) did it give?
Its GI50 is 18.2 µM (inactive).

How did the GI50 (BT-549) turn out when `CCOC(=O)c1cc(C2=CCNC2=O)c(-c2cc(C)no2)[nH]1` was run?
The GI50 was > 100 µM (inactive).

How did the GI50 (BT-549) turn out when `O=S(=O)(O)c1ccc(/N=N/c2ccc(/N=N/c3c(O)ccc4cc(S(=O)(=O)O)ccc34)cc2)cc1` was run?
Its GI50 is > 100 µM (inactive).

For `CCC1CN2CCc3c([nH]c4ccccc34)[C@@](C(=O)OC)(c3cc4c(cc3OC)N(C)C3C(O)(C(=O)OC)C(C(=O)OC)C5(CC)C=CCN6CCC43C65)C[C@@H](C2)[C@@H]1C(C)(C)C` (stereo partly specified), which GI50 (BT-549) is on record?
Its GI50 is 1.61 µM (inactive).

Which GI50 (BT-549) does the source give for `CC(=O)Nc1ccc(S(=O)(=O)Nc2nnc(S(N)(=O)=O)s2)cc1` here?
Its GI50 is > 100 µM (inactive).

With `Oc1ccc(-c2nc3ccccc3s2)cc1` as the molecule, how does the GI50 (BT-549) read?
Its GI50 is 50.2 µM (inactive).

How did the GI50 (BT-549) turn out when `COc1ccc([C@@]23Oc4cc(OC)cc(OC)c4[C@]2(O)[C@H](O)[C@H](C(N)=O)[C@H]3c2ccccc2)cc1` [DIDESMETHYLROCAGLAMIDE] was run?
The GI50 was < 0.0112 µM (active).

Which results are given for `NC1=NC(=O)/C(=C2\CCNC(=O)c3[nH]c(Br)cc32)N1` [HYMENIALDISINE]?
GI50 (DMS-273): > 85.5 µM (inactive); GI50 (HOP-18): > 45.1 µM (inactive); GI50 (KM-20L2): 70.1 µM (inactive); GI50 (BT-549): 10.4 µM (inactive); GI50 (M19-MEL): 48.5 µM (inactive); GI50 (XF498): > 100 µM (inactive); GI50 (SNB-78): 86.3 µM (inactive)
